Source: patent US11279735B2, “Cyclic peptide antibiotics” (priority 2017, dated 2022)
In brackets after ≈: the same amount, converted by molar mass. *1 amine or outer side, *2 acyl side, *3 side chain or, on linkers, in order; H or OH if unused. Where a SMILES comes first, the peptide text is derived from it. [ ]: non-standard residue; d: D form. X5 = CCCC[C@@H](OC[C@@H](C)N[*:1])[C@@H](CCCC)C(=O)[*:2]; X2 = CCCCCC[C@@H](OC[C@@H](C)N[*:1])[C@@H](C)C(=O)[*:2]; Gly(cHept) = N[C@H](C(=O)O)C1CCCCCC1; aThr = C[C@H](O)[C@H](N)C(=O)O; NMeL = CN[C@@H](CC(C)C)C(=O)O; Chg = N[C@H](C(=O)O)C1CCCCC1; NMeNva = CCC[C@H](NC)C(=O)O; Dap = NC[C@H](N)C(=O)O

System: Escherichia coli (E. coli) strain CFT073 ATCC 700928
Format: cell-based
Details: ATCC 700928, 22 h
In short: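 MICs were read after 22 h at 35 °C, with bacteria added to a final OD600 of 0.0005. Compounds were serially diluted 2-fold over ten concentrations from a top of 64, 4, 0.5 or 0.13 μg/mL (protocols 1–4). Medium was cation-adjusted Mueller Hinton II broth plus 0.002% Tween-80, following CLSI M07-A8.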

Question: How did the MIC turn out when `CCCCCC[C@H]1OC[C@@H](C)NC(=O)[C@H](COc2cccc(CN)c2)NC(=O)[C@H](CN)NC(=O)[C@H](C2CCCCC2)NC(=O)[C@H](CC(C)C)N(C)C(=O)[C@@H]1C` [Example 167, (3R,6S,9S,12S,15S,18R,19R)-9-(Aminomethyl)-6-((3-(aminomethyl)phenoxy)methyl)-12-cyclohexyl-19-hexyl-15-isobutyl-3,16,18-trimethyl-1-oxa-4,7,10,13,16-pentaazacyclononadecane-5,8,11,14,17-pentaone] was run?
Answer: The MIC was 1.6 µM (≈ 1.24 µg/mL).

Question: `CCCCCC[C@H]1OC(=O)CNC(=O)[C@H](CNC(=O)CCN)NC(=O)[C@H](CN)NC(=O)[C@H](C2CCCCC2)NC(=O)[C@H](CC(C)C)N(C)C(=O)[C@@H]1C` [Example 145, 3-amino-N-[[(6S,9S,12S,15S,18R,19R)-9-(aminomethyl)-12-cyclohexyl-19-hexyl-15-isobutyl-16,18-dimethyl-2,5,8,11,14,17-hexaoxo-1-oxa-4,7,10,13,16-pentazacyclononadec-6-yl]methyl]propanamide] was tested. Which MIC did it give?
Answer: The MIC was 12 µM (≈ 8.84 µg/mL).

Question: With `CCCCCC[C@H]1OC[C@@H](C)NC(=O)[C@H](COC)NC(=O)[C@H](CN)NC(=O)[C@H](C2CCCCC2)NC(=O)[C@H](CC(C)C)N(C)C(=O)[C@@H]1C` [Example 128, (3R,6S,9S,12S,15S,18R,19R)-9-(aminomethyl)-12-cyclohexyl-19-hexyl-15-isobutyl-6-(methoxymethyl)-3,16,18-trimethyl-1-oxa-4,7,10,13,16-pentazacyclononadecane-5,8,11,14,17-pentone] (cyclo([Chg][Dap]S(Me)[X2][NMeL])) as the molecule, how does the MIC read?
Answer: The MIC was 3.1 µM (≈ 2.11 µg/mL).

Question: `CC(C)C[C@H]1C(=O)N[C@@H](C2CCCCC2)C(=O)N[C@@H](CN)C(=O)N[C@@H]([C@H](C)O)C(=O)NCC(=O)O[C@H](CCC(C)(C)C)[C@@H](C)C(=O)N1C` [Example 63, (6S,9S,12S,15S,18R,19R)-9-(aminomethyl)-12-cyclohexyl-19-(3,3-dimethylbutyl)-6-((S)-1-hydroxyethyl)-15-isobutyl-16,18-dimethyl-1-oxa-4,7,10,13,16-pentaazacyclononadecane-2,5,8,11,14,17-hexaone] was tested. Which MIC did it give?
Answer: Its MIC is 4.4 µM (≈ 3 µg/mL).

Question: How did the MIC turn out when `CCCCCCCCCC[C@H]1OC(=O)CNC(=O)[C@H](CO)NC(=O)[C@H](CO)NC(=O)[C@H](CC2CCC2)NC(=O)[C@H](CC(C)C)N(C)C(=O)[C@@H]1C` [Example 41, (6S,9S,12S,15S,18R,19R)-12-(cyclobutylmethyl)-19-decyl-6,9-bis(hydroxymethyl)-15-isobutyl-16,18-dimethyl-1-oxa-4,7,10,13,16-pentazacyclononadecane-2,5,8,11,14,17-hexone] was run?
Answer: The MIC was 25 µM (≈ 17.7 µg/mL).

Question: With `CCCCCCCCCC[C@H]1OC(=O)CNC(=O)[C@H]([C@H](C)O)NC(=O)[C@H](CN)NC(=O)[C@H](C2CCCC2)NC(=O)[C@H](CC(C)C)N(C)C(=O)[C@@H]1C` [Example 45, (6S,9S,12S,15S,18R,19R)-9-(aminomethyl)-12-cyclopentyl-19-decyl-6-[(1S)-1-hydroxyethyl]-15-isobutyl-16,18-dimethyl-1-oxa-4,7,10,13,16-pentazacyclononadecane-2,5,8,11,14,17-hexone] as the molecule, how does the MIC read?
Answer: The MIC was 25 µM (≈ 18.1 µg/mL).

Question: With `CCCC[C@H]1OC[C@@H](C)NC(=O)[C@H]([C@H](C)O)NC(=O)[C@H](CN)NC(=O)[C@H](C2CCCCC2)NC(=O)[C@H](CCC)N(C)C(=O)[C@@H]1CCCC` [Example 77, (3R,6S,9S,12S,15S,18R,19R)-9-(Aminomethyl)-18,19-dibutyl-12-cyclohexyl-6-((S)-1-hydroxyethyl)-3,16-dimethyl-15-propyl-1-oxa-4,7,10,13,16-pentaazacyclononadecane-5,8,11,14,17-pentaone] (cyclo([Chg][Dap][aThr][X5][NMeNva])) as the molecule, how does the MIC read?
Answer: The MIC was 4.4 µM (≈ 3 µg/mL).

Question: For `CCCCCC[C@H]1OC[C@@H](C)NC(=O)[C@H](CN)NC(=O)[C@H](CN)NC(=O)[C@H](C2CCCCCC2)NC(=O)[C@H](CC(C)C)N(C)C(=O)[C@@H]1C` [Example 151, (3R,6S,9S,12S,15S,18R,19R)-6,9-Bis(aminomethyl)-12-cycloheptyl-19-hexyl-15-isobutyl-3,16,18-trimethyl-1-oxa-4,7,10,13,16-pentazacyclononadecane-5,8,11,14,17-pentone] (cyclo([Dap][Dap][X2][NMeL][Gly(cHept)])), which MIC is on record?
Answer: Its MIC is 6.3 µM (≈ 4.28 µg/mL).

Question: `CC[C@H](C)[C@@H]1NC(=O)[C@H](CC(C)C)N(C)C(=O)[C@H](C)[C@@H](CCCCC(C)(C)C)OC(=O)CNC(=O)[C@H]([C@H](C)O)NC(=O)[C@H](CO)NC1=O` [Example 44, (6S,9S,12S,15S,18R,19R)-19-(5,5-dimethylhexyl)-6-[(1S)-1-hydroxyethyl]-9-(hydroxymethyl)-15-isobutyl-16,18-dimethyl-12-[(1S)-1-methylpropyl]-1-oxa-4,7,10,13,16-pentazacyclononadecane-2,5,8,11,14,17-hexone] was tested. Which MIC did it give?
Answer: The MIC was 25 µM (≈ 17.1 µg/mL).

Question: `CCCCCC[C@H]1OC(=O)CNC(=O)[C@H]([C@H](C)O)NC(=O)[C@H](CO)NC(=O)[C@H]([C@H](C)CC)NC(=O)[C@H](CC(C)C)N(C)C(=O)[C@@H]1CCCc1ccc(C)cc1` [Example 9, (6S,9S,12S,15S,18R,19R)-12-((R)-sec-butyl)-19-hexyl-6-((S)-1-hydroxyethyl)-9-(hydroxymethyl)-15-isobutyl-16-methyl-18-(3-(p-tolyl)propyl)-1-oxa-4,7,10,13,16-pentaazacyclononadecane-2,5,8,11,14,17-hexaone] was tested. Which MIC did it give?
Answer: The MIC was 6.3 µM (≈ 4.88 µg/mL).

Question: Which MIC does the source give for `CCCCCC[C@H]1OC(=O)CNC(=O)[C@H]([C@H](C)O)NC(=O)[C@H](CO)NC(=O)[C@H](C2CCCCC2)NC(=O)[C@H](CC(C)C)N(C)C(=O)[C@@H]1C` [Example 118, (6S,9S,12S,15S,18R,19R)-12-cyclohexyl-19-hexyl-9-(hydroxymethyl)-15-isobutyl-16,18-dimethyl-6-[(1S)-1-hydroxyethyl]-1-oxa-4,7,10,13,16-pentazacyclononadecane-2,5,8,11,14,17-hexone] here?
Answer: Its MIC is 4.4 µM (≈ 3 µg/mL).

Question: `CCCCCCC[C@H]1OC(=O)CNC(=O)[C@H]([C@H](C)O)NC(=O)[C@H](CO)NC(=O)[C@H]([C@H](C)CC)NC(=O)[C@H](CC(C)C)N(C)C(=O)[C@@H]1CC` [Example 8, (6S,9S,12S,15S,18R,19R)-12-((R)-sec-Butyl)-18-ethyl-9-heptyl-6-((S)-1-hydroxyethyl)-9-(hydroxymethyl)-15-isobutyl-16-methyl-1-oxa-4,7,10,13,16-pentaazacyclononadecane-2,5,8,11,14,17-hexaone] was tested. Which MIC did it give?
Answer: Its MIC is 25 µM (≈ 17.1 µg/mL).

Question: Which MIC does the source give for `CCCC(C)(C)CC[C@H]1OC(=O)CNC(=O)[C@H]([C@H](C)O)NC(=O)[C@H](CN)NC(=O)[C@H]([C@H](C)CC)NC(=O)[C@H](CC(C)C)N(C)C(=O)[C@@H]1C` [Example 103, (6S,9S,12S,15S,18R,19R)-9-(aminomethyl)-19-(3,3-dimethylhexyl)-15-isobutyl-16,18-dimethyl-6-[(1S)-1-hydroxyethyl]-12-[(1R)-1-methylpropyl]-1-oxa-4,7,10,13,16-pentazacyclononadecane-2,5,8,11,14,17-hexone] here?
Answer: Its MIC is 3.1 µM (≈ 2.12 µg/mL).

Question: For `CCCCCC[C@H]1OC[C@@H](C)NC(=O)[C@H](COc2ccc(CCN)cc2)NC(=O)[C@H](CN)NC(=O)[C@H](C2CCCCC2)NC(=O)[C@H](CC(C)C)N(C)C(=O)[C@@H]1C` [Example 174, (3R,6S,9S,12S,15S,18R,19R)-6-((4-(2-Aminoethyl)phenoxy)methyl)-9-(aminomethyl)-12-cyclohexyl-19-hexyl-15-isobutyl-3,16,18-trimethyl-1-oxa-4,7,10,13,16-pentaazacyclononadecane-5,8,11,14,17-pentaone], which MIC is on record?
Answer: Its MIC is 1.6 µM (≈ 1.26 µg/mL).

Question: Which MIC does the source give for `CCCCCCCCCC[C@H]1OC(=O)CNC(=O)[C@H]([C@H](C)O)NC(=O)[C@H](CN)NC(=O)[C@H]([C@H](C)CC)NC(=O)[C@H](CCc2ccccc2)N(C)C(=O)[C@@H]1C` [Example 88, (6S,9S,12S,15S,18R,19R)-9-(aminomethyl)-19-decyl-16,18-dimethyl-15-(2-phenylethyl)-6-[(1S)-1-hydroxyethyl]-12-[(1R)-1-methylpropyl]-1-oxa-4,7,10,13,16-pentazacyclononadecane-2,5,8,11,14,17-hexone] here?
Answer: The MIC was 50 µM (≈ 38 µg/mL).

Question: `CCCCCCCCCC[C@H]1OC(=O)CNC(=O)[C@H]([C@H](C)O)NC(=O)[C@H](CNC(=N)N)NC(=O)[C@H]([C@@H](C)CC)NC(=O)[C@H](CC(C)C)N(C)C(=O)[C@@H]1C` [Example 26, 1-[[(6S,9S,12S,15S,18R,19R)-19-decyl-6-[(1S)-1-hydroxyethyl]-15-isobutyl-16,18-dimethyl-12-[(1S)-1-methylpropyl]-2,5,8,11,14,17-hexaoxo-1-oxa-4,7,10,13,16-pentazacyclononadec-9-yl]methyl]guanidine] was tested. Which MIC did it give?
Answer: Its MIC is 50 µM (≈ 37.6 µg/mL).

Question: For `CCCCCCCCCC[C@H]1OC(=O)CNC(=O)[C@H](CCO)NC(=O)[C@H](CO)NC(=O)[C@H]([C@@H](C)CC)NC(=O)[C@H](CC(C)C)N(C)C(=O)[C@@H]1C` [Example 27, (6S,9S,12S,15S,18R,19R)-19-decyl-6-(2-hydroxyethyl)-9-(hydroxymethyl)-15-isobutyl-16,18-dimethyl-12-[(1S)-1-methylpropyl]-1-oxa-4,7,10,13,16-pentazacyclononadecane-2,5,8,11,14,17-hexone], which MIC is on record?
Answer: The MIC was 13 µM (≈ 9.26 µg/mL).

Question: For `CCCCCCCCCC[C@H]1OC(=O)CNC(=O)[C@H]([C@H](C)O)NC(=O)[C@H](CN)NC(=O)[C@H]([C@H](C)CC)NC(=O)[C@H](CC(C)C)N(C)C(=O)[C@@H]1C` [Example 1, (6S,9S,12S,15S,18R,19R)-9-(aminomethyl)-12-((R)-sec-butyl)-19-decyl-6-((S)-1-hydroxyethyl)-15-isobutyl-16,18-dimethyl-1-oxa-4,7,10,13,16-pentaazacyclononadecane-2,5,8,11,14,17-hexaone], which MIC is on record?
Answer: The MIC was 3.1 µM (≈ 2.2 µg/mL).

Question: For `CCCCCC[C@H]1OC(=O)CNC(=O)[C@H]([C@H](C)O)NC(=O)[C@H](CN)NC(=O)[C@H]([C@H](C)CC)NC(=O)[C@H](CC2CCCC2)N(C)C(=O)[C@@H]1C` [Example 104, (6S,9S,12S,15S,18R,19R)-9-(aminomethyl)-15-(cyclopentylmethyl)-19-hexyl-16,18-dimethyl-6-[(1S)-1-hydroxyethyl]-12-[(1R)-1-methylpropyl]-1-oxa-4,7,10,13,16-pentazacyclononadecane-2,5,8,11,14,17-hexone], which MIC is on record?
Answer: Its MIC is 6.3 µM (≈ 4.29 µg/mL).
